Test results taken from US11440903B2, “Salt form and crystal form of compound as FGFR4 inhibitor and preparation method thereof” (GUANGDONG ZHONGSHENG PHARMACEUTICAL CO., LTD, priority 2017, dated 2022).
Like-named read-outs stand apart in the source and are kept apart here.

Experiment: Solubility test in biological media (FaSSIF, FeSSIF, SGF) and water, 37° C.
Type: physicochemical
Details: for Status (24 h) / solubility at 24 h / pH 24 hours: 37° C.; for Status (24 h): about 4 mg in 2 mL; for solubility at 24 h: salt forms converted to salt concentrations, read-out: Solubility (mg/mL) 24 hours; for pH 24 hours: supernatant; for pH 0 hour: initial
Procedure: Step 1: Preparation of Control Solutions (0.2 mg/mL, calculated by free base)
2 mg the crystal form B of the compound represented by formula (I) (or 2.4 mg the crystal form E of the compound represented by formula (II)) as a control was precisely weighed and placed into a 40 mL glass vial, and a diluent (10 mL) was precisely added. The reaction solution was subjected to ultrasonic treatment for 20 min to sufficiently dissolve, then cooled to room temperature and shaked well. Two control solutions (STD #1, STD #2) were formulated in accordance with this method.
Step 2: Preparation of Linear Solutions
The control solution STD #1 of the crystal form B of the compound represented by formula (I) was 1×, 10×, 100×, 1000× and 2000× (free base LOQ) diluted, and designated as the linear solutions L1, L2, L3, L4 and L5; the control solution STD #1 of the crystal form E of the compound represented by formula (II) was 1×, 10×, 100× and 1000× (methanesulfonate LOQ) diluted, and designated as the linear solutions L1, L2, L3, L4.
Step 3: Solubility Test of the crystal form B of the compound represented by formula (I), the crystal form G of the compound represented by formula (III) and the crystal form E of the compound represented by formula (II) in biological media and water
4 samples (about 4 mg) of each of the crystal form B of the compound represented by formula (I), the crystal form E of the compound represented by formula (II), and the crystal form G of the compound represented by formula (III) were added into 12 glass vials (4 mL), respectively, and then 2 mL different biological media (FaSSIF, FeSSIF, SGF) and water were added into each compound respectively, then mixed homogeneously to form a suspension. The suspension was detected for its initial pH value. A magnet was added into the suspension, and placed on a magnetic stirring heater for stirring (at a temperature of 37° C., in dark). After stirring for 24 h, a sample was taken. The taken sample was quickly centrifuged, and the residual solid was detected by XRPD. The supernatant was detected for its pH value and diluted with a diluent into appropriate multiple, then measured with HPLC for its concentration.
FaSSIF: 1. 0.042 g sodium hydroxide, 0.3438 g sodium dihydrogen phosphate and 0.6186 g sodium chloride were weighed, added into 90 mL purified water, and homogeneously mixed, then, the mixture was adjusted with 1 N hydrochloric acid or 1 N sodium hydroxide to pH=6.5, and diluted into a constant volume of 100 mL with purified water; 2. 50 mL of the buffer described above was taken, and 0.224 g commercially available powder (Biorelevant.com) of FaSSIF/FeSSIF/FaSSGF was added thereto, the mixture was stirred to dissolve, and diluted with purified water to a constant volume of 100 mL.
FeSSIF: 1. 0.404 g sodium hydroxide, 0.865 g glacial acetic acid, and 1.1874 g sodium chloride were weighed, added into 90 mL purified water, and homogeneously mixed, then, the mixture was adjusted with 1 N hydrochloric acid or 1 N sodium hydroxide to pH=5.0, and diluted with purified water to a constant volume of 100 mL, 2. 50 mL of the buffer described above was taken, and 1.12 g commercially available powder (Biorelevant.com) of FaSSIF/FeSSIF/FaSSGF was added thereto, the mixture was stirred to dissolve, and diluted with purified water to a constant volume of 100 mL.
FaSSGF (SGF): 1. 0.2 g sodium chloride was weighed, added into 90 mL purified water, and mixed homogeneously, the mixture was adjusted with 1 N hydrochloric acid to pH=1.8, and diluted with purified water to a constant volume of 100 mL, and stood at room temperature.

[1] = SGF (FaSSGF), pH 1.8, simulated gastric fluid, thermodynamic from solid, SGF
[2] = pH 5, thermodynamic from solid, FeSSIF
[3] = pH 6.5, thermodynamic from solid, FaSSIF
[4] = thermodynamic from solid, Water

C=CC(=O)N[C@H]1COC[C@H]1Nc1ncc(/C=C(\F)c2c(Cl)c(OC)cc(OC)c2Cl)cn1 [Crystal Form B]
Status (24 h) (FaSSIF): Suspension | solubility in three types of biological media, conclusion in words (FaSSIF, FeSSIF, SGF): good solubility | Status (24 h) (FeSSIF): Suspension | solubility at 24 h [1]: 0.014 mg/mL | Status (24 h) (SGF): Suspension | Status (24 h) (Water): Suspension | solubility at 24 h [2]: 0.284 mg/mL | solubility at 24 h [3]: 0.041 mg/mL | pH 24 hours (FaSSIF): 7.10 | pH 24 hours (FeSSIF): 5.18 | pH 24 hours (SGF): 2.48 | pH 24 hours (Water): 7.30 | pH 0 hour (suspension in FaSSIF): 7.04 | pH 0 hour (suspension in FeSSIF): 4.98 | pH 0 hour (suspension in SGF): 2.21 | pH 0 hour (suspension in Water): 8.34 | solubility at 24 h [4]: 0.007 mg/mL

C=CC(=O)N[C@H]1COC[C@H]1Nc1ncc(/C=C(\F)c2c(Cl)c(OC)cc(OC)c2Cl)cn1.CS(=O)(=O)O [Crystal Form E]
Status (24 h) (FaSSIF): Suspension | solubility in three types of biological media, conclusion in words (FaSSIF, FeSSIF, SGF): good solubility | Status (24 h) (FeSSIF): Suspension | solubility at 24 h [1]: 0.041 mg/mL | Status (24 h) (SGF): Suspension | Status (24 h) (Water): Suspension | solubility at 24 h [2]: 0.358 mg/mL | solubility at 24 h [3]: 0.036 mg/mL | pH 24 hours (FaSSIF): 6.81 | pH 24 hours (FeSSIF): 5.11 | pH 24 hours (SGF): 2.31 | pH 24 hours (Water): 2.74 | pH 0 hour (suspension in FaSSIF): 6.97 | pH 0 hour (suspension in FeSSIF): 4.92 | pH 0 hour (suspension in SGF): 2.17 | pH 0 hour (suspension in Water): 3.50 | solubility at 24 h [4]: 0.1 mg/mL
